Reference: BindingDB's records for doi:10.1016/j.bmc.2005.11.005 (Wyeth Research, 2006)

Tests used:
[1] = molecular target: T1, Tyrosine-protein phosphatase non-receptor type 1 [1-298] (Homo sapiens, UniProt P18031); assay: Enzymatic Assay
T1 construct: 1-298
T1 sequence (P18031 whole entry): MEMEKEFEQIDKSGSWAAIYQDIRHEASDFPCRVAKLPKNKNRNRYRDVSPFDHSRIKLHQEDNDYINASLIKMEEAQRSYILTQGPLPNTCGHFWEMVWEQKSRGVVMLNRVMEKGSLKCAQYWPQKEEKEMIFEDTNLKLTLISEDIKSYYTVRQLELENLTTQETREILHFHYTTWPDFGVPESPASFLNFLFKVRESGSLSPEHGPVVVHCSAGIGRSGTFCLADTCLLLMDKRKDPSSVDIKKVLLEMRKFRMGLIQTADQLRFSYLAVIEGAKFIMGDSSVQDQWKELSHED
Method: (§1) The enzymatic assay was carried out at room temperature in 96-well plates. […] All the assays were carried out in duplicate or triplicate and the average results are presented. Ki is derived from IC50 based on competitive inhibition Ki = IC50 x Km/ (Km + [substrate]).

[2] = molecular target: T2, Tyrosine-protein phosphatase non-receptor type 2 (Homo sapiens, UniProt P17706); assay: Enzymatic Assay; conditions: 25 °C
T2 sequence (P17706 whole entry): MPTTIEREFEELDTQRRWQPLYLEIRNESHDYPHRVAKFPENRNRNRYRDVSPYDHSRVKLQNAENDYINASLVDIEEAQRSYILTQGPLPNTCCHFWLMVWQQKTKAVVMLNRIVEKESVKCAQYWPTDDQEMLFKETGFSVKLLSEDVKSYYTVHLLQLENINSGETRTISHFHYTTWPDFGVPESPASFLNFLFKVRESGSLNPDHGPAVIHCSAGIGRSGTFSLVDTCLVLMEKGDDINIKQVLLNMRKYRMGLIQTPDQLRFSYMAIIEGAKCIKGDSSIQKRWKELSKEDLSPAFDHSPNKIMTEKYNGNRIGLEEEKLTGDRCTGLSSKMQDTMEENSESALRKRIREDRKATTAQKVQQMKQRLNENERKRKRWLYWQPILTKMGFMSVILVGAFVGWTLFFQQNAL
Method: as §1

`O=C(O)COc1c(C(=O)O)sc2cc(-c3cccs3)ccc12` [3-(carboxymethoxy)-6-(thiophen-2-yl)-1-benzothiophene-2-carboxylic acid] was tested, and the Ki ([1]; pH 7, 22 °C) was 30 µM.
With `O=C(O)COc1c(C(=O)O)sc2c(Cl)cccc12` [3-(carboxymethoxy)-7-chloro-1-benzothiophene-2-carboxylic acid] the Ki ([1]; 25 °C) was 119 µM.
`O=C(O)COc1c(C(=O)O)sc2c1sc1ccccc12` [5-(carboxymethoxy)-3,7-dithiatricyclo[6.4.0.0^{2,6}]dodeca-1(8),2(6),4,9,11-pentaene-4-carboxylic acid] showed a Ki ([1]; 25 °C) of 9.2 µM and a Ki [2] of 4.1 µM.
In the case of `O=C(O)COc1c(C(=O)O)sc2c1sc1cc(NC3CCCCC3)ccc12` [5-(carboxymethoxy)-10-(cyclohexylamino)-3,7-dithiatricyclo[6.4.0.0^{2,6}]dodeca-1(8),2(6),4,9,11-pentaene-4-carboxylic acid], the Ki ([1]; 25 °C) is reported as 0.74 µM.
`O=C(O)c1sc2cc(Cl)ccc2c1OC(F)C(=O)O` (centres undefined) [3-[carboxy(fluoro)methoxy]-6-chloro-1-benzothiophene-2-carboxylic acid] gave a Ki ([1]; pH 7, 22 °C) of 52 µM.
Work on `O=C(O)COc1c(C(=O)O)sc2c1sc1c(NCC3CCCCC3)cccc12` [5-(carboxymethoxy)-9-[(cyclohexylmethyl)amino]-3,7-dithiatricyclo[6.4.0.0^{2,6}]dodeca-1(8),2(6),4,9,11-pentaene-4-carboxylic acid] yielded a Ki ([1]; 25 °C) of 0.92 µM.
For `O=C(O)COc1c(C(=O)O)sc2cc(Br)ccc12` [6-bromo-3-(carboxymethoxy)-1-benzothiophene-2-carboxylic acid], the Ki ([1]; pH 7, 22 °C) was 42 µM.
`O=C(O)COc1c(C(=O)O)sc2c1cnc1ccccc12` [5-(carboxymethoxy)-3-thia-8-azatricyclo[7.4.0.0^{2,6}]trideca-1(9),2(6),4,7,10,12-hexaene-4-carboxylic acid] showed a Ki ([1]; 25 °C) of over 500 µM.
`CCS(=O)(=O)N1CCC(Nc2ccc3c(c2)sc2c(OCC(=O)O)c(C(=O)O)sc23)CC1` [5-(carboxymethoxy)-10-{[1-(ethanesulfonyl)piperidin-4-yl]amino}-3,7-dithiatricyclo[6.4.0.0^{2,6}]dodeca-1(8),2(6),4,9,11-pentaene-4-carboxylic acid] was tested, and the Ki ([1]; 25 °C) was 1.6 µM.
For `O=C(O)COc1c(C(=O)O)sc2ccsc12` [3-(carboxymethoxy)thieno[3,2-b]thiophene-2-carboxylic acid], the Ki ([1]; pH 7, 22 °C) was 280 µM.
Work on `O=C(O)COc1c(C(=O)O)sc2c1ccc1ccccc12` [5-(carboxymethoxy)-3-thiatricyclo[7.4.0.0^{2,6}]trideca-1(9),2(6),4,7,10,12-hexaene-4-carboxylic acid] yielded a Ki ([1]; 25 °C) of 11 µM.
In the case of `O=C(O)COc1c(C(=O)O)sc2c1sc1c(NC3CCCCC3)cccc12` [5-(carboxymethoxy)-9-(cyclohexylamino)-3,7-dithiatricyclo[6.4.0.0^{2,6}]dodeca-1(8),2(6),4,9,11-pentaene-4-carboxylic acid], the Ki ([1]; 25 °C) is reported as 1.7 µM.
In the case of `O=C(O)COc1c(C(=O)O)sc2c1sc1c(Cl)cccc12` [5-(carboxymethoxy)-9-chloro-3,7-dithiatricyclo[6.4.0.0^{2,6}]dodeca-1(8),2(6),4,9,11-pentaene-4-carboxylic acid], the Ki ([1]; 25 °C) is reported as 10 µM.
`O=C(O)COc1c(C(=O)O)sc2c1sc1cc(NC3CCN(S(=O)(=O)Cc4ccccc4)CC3)ccc12` [5-(carboxymethoxy)-10-{[1-(phenylmethane)sulfonylpiperidin-4-yl]amino}-3,7-dithiatricyclo[6.4.0.0^{2,6}]dodeca-1(8),2(6),4,9,11-pentaene-4-carboxylic acid] showed a Ki [2] of 0.38 µM.
For `O=C(O)COc1c(C(=O)O)sc2cc(Cl)ccc12` [3-(carboxymethoxy)-6-chloro-1-benzothiophene-2-carboxylic acid], the Ki ([1]; pH 7, 22 °C) was 61 µM.
For `CC(Oc1c(C(=O)O)sc2cc(Cl)ccc12)C(=O)O` (centres undefined) [3-(1-carboxyethoxy)-6-chloro-1-benzothiophene-2-carboxylic acid], the Ki ([1]; pH 7, 22 °C) was over 2500 µM.
Work on `O=C(O)COc1c(C(=O)O)sc2cc(-c3ccc(O)cc3)ccc12` [3-(carboxymethoxy)-6-(4-hydroxyphenyl)-1-benzothiophene-2-carboxylic acid] yielded a Ki ([1]; pH 7, 22 °C) of 26 µM.
With `O=C(O)COc1c(C(=O)O)sc2c1sc1cc(NCC3CCCCC3)ccc12` [5-(carboxymethoxy)-10-[(cyclohexylmethyl)amino]-3,7-dithiatricyclo[6.4.0.0^{2,6}]dodeca-1(8),2(6),4,9,11-pentaene-4-carboxylic acid] the Ki ([1]; 25 °C) was 0.68 µM.
`O=C(O)COc1c(C(=O)O)sc2cc(-c3ccccc3)ccc12` [3-(carboxymethoxy)-6-phenyl-1-benzothiophene-2-carboxylic acid] gave a Ki ([1]; pH 7, 22 °C) of 128 µM.
For `O=C(O)COc1c(C(=O)O)oc2ncccc12` [3-(carboxymethoxy)furo[2,3-b]pyridine-2-carboxylic acid], the Ki ([1]; pH 7, 22 °C) was over 2500 µM.
With `Cc1cc2sc(C(=O)O)c(OCC(=O)O)c2cn1` [3-(carboxymethoxy)-6-methylthieno[3,2-c]pyridine-2-carboxylic acid] the Ki ([1]; pH 7, 22 °C) was over 2500 µM.
`Cc1cccc2c(OCC(=O)O)c(C(=O)O)sc12` [3-(carboxymethoxy)-7-methyl-1-benzothiophene-2-carboxylic acid] showed a Ki ([1]; 25 °C) of 37 µM.
`O=C(O)COc1c(C(=O)O)sc2c1sc1cc(Cl)ccc12` [5-(carboxymethoxy)-10-chloro-3,7-dithiatricyclo[6.4.0.0^{2,6}]dodeca-1(8),2(6),4,9,11-pentaene-4-carboxylic acid] gave a Ki ([1]; 25 °C) of 3.5 µM.
Compound `O=C(O)COc1c(C(=O)O)sc2cc(C(=O)Nc3ccn(-c4ccccc4)n3)ccc12` [3-(carboxymethoxy)-6-[(1-phenyl-1H-pyrazol-3-yl)carbamoyl]-1-benzothiophene-2-carboxylic acid] has a Ki ([1]; pH 7, 22 °C) of 20 µM.
`O=C(O)COc1c(C(=O)O)sc2ccccc12` [3-(carboxymethoxy)-1-benzothiophene-2-carboxylic acid] showed a Ki ([1]; pH 7, 22 °C) of 160 µM.
Compound `O=C(O)COc1c(C(=O)O)sc2cccnc12` [3-(carboxymethoxy)thieno[3,2-b]pyridine-2-carboxylic acid] has a Ki ([1]; pH 7, 22 °C) of 77 µM.
`O=C(O)COc1cc2ccccc2cc1C(=O)O` [3-(carboxymethoxy)naphthalene-2-carboxylic acid] gave a Ki ([1]; pH 7, 22 °C) of 860 µM.
`O=C(O)COc1c(C(=O)O)sc2c1sc1cc(NC3CCOCC3)ccc12` [5-(carboxymethoxy)-10-(oxan-4-ylamino)-3,7-dithiatricyclo[6.4.0.0^{2,6}]dodeca-1(8),2(6),4,9,11-pentaene-4-carboxylic acid] showed a Ki ([1]; 25 °C) of 2.4 µM.
